System: rat osteocalcin promoter
Assay: OCN (osteocalcin) promoter assay in RG-15 (ROS 17/2.8) cells
Type: cell-based
Settings: not given
Description: 4. The OCN Promoter test is described in the “Assay” section of the Description, infra.
3. The OCN (Osteocalcin) Promoter Assay
The OCN Promoter Assay is an indicator and marker for osteoporosis. Desired assay results are EC50 less than or equal to 325 nM. Preferred assay results are less than 50 nM.
(3) Materials and Method for The OCN Promoter Assay:
The activation of osteocalcin by VDR ligands was evaluated in a rat osteoblast-like cell line RG-15 (ROS 17/2.8) stably expressing rat osteocalcin promoter fused with luciferase reporter gene. The stable cell lines were established as reported before (Activation of Osteocalcin Transcription involves interaction of protein kinase A- and Protein kinase C-dependent pathways. Boguslawski, G., Hale, L. V., Yu, X.-P., Miles, R. R., Onyia, J. E., Santerre R. F., Chandrasekhar, S. J Biol. Chem. 275, 999-1006, 2000). Confluent RG-15 cells maintained in DMEM/F-12 medium (3:1) containing 5% FBS, 300 µg/ml G418 and at 37° C. under 5% CO2/95% air atmosphere were trypsinized (0.25% trypsin) and plated into white opaque 96-well cell culture plates (25000 cells/well). After 24 hr, cells (in DMEM/F-12 medium+2% FBS) were treated with various concentrations of compounds, dissolved in DMSO. The final DMSO concentration remained at 0.01% (v/v). After 48 hr treatment, the medium was removed, cells were lysed with 50 µl of lysis buffer (From Luciferase reporter assay system, Roche Diagnostics, Indianapolis, Ind.) and assayed for luciferase activity using the Luciferase Reporter Gene Assay kit from Boehringer Mannheim as per manufacturer's specifications.

Point of comparison: CCC(CC)(c1ccc(OCC(O)C(C)(C)C)c(C)c1)c1cc(C)c(C(=O)N[C@H](C)C(=O)O)s1 (stereo partly drawn) [Ex. 57, D-2-[(5-{1-Ethyl-1-[4-(2-hydroxy-3,3-dimethyl-butoxy)-3-methyl-phenyl]-propyl}-3-methyl-thiophene-2-carbonyl)-amino]-propionic acid], EC50 115 nM. Against it:
- CCC(CC)(c1ccc(OCC(O)C(C)(C)C)c(C)c1)c1cc(C)c(C(=O)N[C@@H](C(=O)O)C(C)C)s1 (stereo partly drawn) [Ex. 87, D-2-[(5-{1-ethyl-1-[4-(2-hydroxy-3,3-dimethyl-butoxy)-3-methyl-phenyl]-propyl}-3-methyl-thiophene-2-carbonyl)-amino]-3-methyl-butyric acid] — higher, > 1000 nM
- CCC(CC)(c1ccc(OCC(O)C(C)(C)C)c(C)c1)c1cc(C)c(C(=O)N[C@H](C)C(=O)OC)s1 (single isomer, unassigned) [Ex. 56, D-2-[(5-{1-Ethyl-1-[4-(2-hydroxy-3,3-dimethyl-butoxy)-3-methyl-phenyl]-propyl}-3-methyl-thiophene-2-carbonyl)-amino]-propionic acid methyl ester] — within 1.5-fold, 164 nM
- CCC(CC)(c1ccc(OCC(O)C(C)(C)C)c(C)c1)c1cc(C)c(C(=O)Nc2nnn[nH]2)s1 (single isomer, unassigned) [Ex. 37, 3′-[4-(2-hydroxy-3,3-dimethylbutoxy)-3-methylphenyl]-3′-[5-(tetrazol-5-yl-aminocarbonyl)-4-methylthiophen-2-yl]pentane] — 2.1-fold higher, 240 nM
- CCC(CC)(c1ccc(OCC(O)C(C)(C)C)c(C)c1)c1cc(C)c(C(=O)N[C@@H](C(=O)O)C(C)C)s1 (stereo partly drawn) [Ex. 86, D-2-[(5-{1-Ethyl-1-[4-(2-hydroxy-3,3-dimethyl-butoxy)-3-methyl-phenyl]-propyl}-3-methyl-thiophene-2-carbonyl)-amino]-3-methyl-butyric acid] — 1.8-fold higher, 205 nM
- CCC(CC)(c1ccc(OCC(O)C(C)(C)C)c(C)c1)c1cc(C)c(C(=O)N2CCC[C@H]2C(=O)OC)s1 (single isomer, unassigned) [Ex. 72, L-1-(5-{1-Ethyl-1-[4-(2-hydroxy-3,3-dimethyl-butoxy)-3-methyl-phenyl]-propyl}-3-methyl-thiophene-2-carbonyl)pyrrolidine-2-carboxylic acid methyl ester] — 1.9-fold higher, 219 nM

Same assay, conditions: Rattus norvegicus

Point of comparison: CCC(CC)(c1ccc(OCC(O)C(C)(C)C)c(C)c1)c1cc(C)c(CN(CC(=O)O)C(C)=O)s1 (stereo not drawn) [Ex. 130, 2-[N-acetyl-(5-{1-ethyl-1-[4-(2-hydroxy-3,3-dimethyl-butoxy)-3-methyl-phenyl]-propyl}-3-methyl-thiophen-2-ylmethyl)-amino]-acetic acid], EC50 49.7 nM. Against it:
- CCCc1cc(C(CC)(CC)c2ccc(S(=O)(=O)NCC(=O)O)s2)ccc1OCC(O)C(C)(C)C (stereo not drawn) [Ex. 157] — 6.5-fold lower, 7.65 nM
- CCC(CC)(c1ccc(CCC(O)C(C)(C)C)c(C)c1)c1cc(C)c(C(=O)OC)s1 (stereo not drawn) [Ex. 174, 5-{1-Ethyl-1-[4-(3-hydroxy-4,4-dimethyl-pentyl)-3-methyl-phenyl]-propyl}-3-methyl-thiophene-2-carboxylic acid methyl ester] — 3.5-fold higher, 172 nM
- CCC(CC)(c1ccc(OCC(=O)C(C)(C)C)c(C)c1)c1cc(C)c(S(=O)(=O)NCCC(=O)O)s1 [Ex. 144] — 1.7-fold lower, 29.2 nM
- CCC(CC)(c1ccc(OCC(=O)O)c(C)c1)c1cc(C)c(CCC(O)C(C)(C)C)s1 (stereo not drawn) [Ex. 32] — 5.3-fold lower, 9.35 nM
- CCC(CC)(c1ccc(OCC(O)C(C)(C)C)c(C)c1)c1cc(C)c(C(=O)N2CCC[C@@H]2C(=O)O)s1 (stereo partly drawn) [Ex. 81, D-1-(5-{1-ethyl-1-[4-(2-hydroxy-3,3-dimethyl-butoxy)-3-methyl-phenyl]-propyl}-3-methyl-thiophene-2-carbonyl)-pyrrolidine-2-carboxylic acid] — 4-fold higher, 200 nM
- CCC(CC)(c1ccc(OCC(=O)C(C)(C)C)c(C)c1)c1cc(C)c(S(=O)(=O)N[C@H](C)C(=O)O)s1 [Ex. 146] — 1.8-fold lower, 27.7 nM
- CCC(CC)(c1ccc(OCC(=O)C(C)(C)C)c(C)c1)c1cc(C)c(S(=O)(=O)NCC(=O)O)s1 [Ex. 139] — 1.6-fold lower, 31 nM
- CCC(CC)(c1ccc(OCC(O)C(C)(C)C)c(C)c1)c1cc(C)c(S(=O)(=O)N[C@H](C)C(=O)O)s1 (stereo partly drawn) [Ex. 151] — within 1.5-fold, 48.2 nM
- CCC(CC)(c1ccc(OCC(O)C(C)(C)C)c(C)c1)c1cc(C)c(C(=O)N[C@@H](CC(=O)OC)C(=O)OC)s1 (single isomer, unassigned) [Ex. 58, L-2-[(5-{1-ethyl-1-[4-(2-hydroxy-3,3-dimethyl-butoxy)-3-methyl-phenyl]-propyl}-3-methyl-thiophene-2-carbonyl)-amino]-succinic acid dimethyl ester] — 5.6-fold higher, 277 nM
- CCC(CC)(c1ccc(CCC(=O)C(C)(C)C)c(C)c1)c1cc(C)c(S(=O)(=O)NCC(=O)O)s1 [Ex. 182] — 4.6-fold higher, 231 nM
- CCC(CC)(c1ccc(CCC(=O)O)c(C)c1)c1cc(C)c(CCC(O)C(C)(C)C)s1 (single isomer, unassigned) [Ex. 30A] — 4.4-fold lower, 11.2 nM
- CCC(CC)(c1ccc(OCC(O)C(C)(C)C)c(C)c1)c1cc(C)c(-c2n[nH]c(=S)o2)s1 (stereo not drawn) [Ex. 172, 5-(5-{1-Ethyl-1-[4-(2-hydroxy-3,3-dimethyl-butoxy)-3-methyl-phenyl]-propyl}-3-methyl-thiophen-2-yl)-3H-[1,3,4]oxadiazole-2-thione] — 2.9-fold lower, 17.2 nM
- CCC(CC)(c1ccc(C(=O)NCC(=O)OC)c(C)c1)c1cc(C)c(CCC(O)C(C)(C)C)s1 (single isomer, unassigned) [Ex. 25A] — 5-fold lower, 9.9 nM
- CCC(CC)(c1ccc(OCC(O)C(C)(C)C)c(C)c1)c1cc(C)c(C(=O)N[C@@H](CC(=O)O)C(=O)O)s1 (stereo partly drawn) [Ex. 59, L-2-[(5-{1-Ethyl-1-[4-(2-hydroxy-3,3-dimethyl-butoxy)-3-methyl-phenyl]-propyl}-3-methyl-thiophene-2-carbonyl)-amino]-succinic acid] — 6.4-fold higher, 319 nM
- CCC(CC)(c1ccc(OCS(C)(=O)=O)c(C)c1)c1cc(C)c(CC[C@@H](O)C(C)(C)C)s1 [Ex. 14] — within 1.5-fold, 46.6 nM
- CCC(CC)(c1ccc(CCC(O)C(C)(C)C)c(C)c1)c1cc(C)c(C(=O)O)s1 (stereo not drawn) [Ex. 175, 5-{1-Ethyl-1-[4-(3-hydroxy-4,4-dimethyl-pentyl)-3-methyl-phenyl]-propyl}-3-methyl-thiophene-2-carboxylic acid] — 2.6-fold higher, 127 nM
- CCC(=O)NS(=O)(=O)c1sc(C(CC)(CC)c2ccc(OCC(=O)C(C)(C)C)c(C)c2)cc1C [Ex. 163, 5-{1-[4-(3,3-dimethyl-2-oxo-butoxy)-3-methyl-phenyl]-1-ethyl-propyl}-3-methyl-thiophene-2-sulfonic acid propionyl-amide] — 2.1-fold higher, 106 nM
- CCC(O)(CC)COc1ccc(C(CC)(CC)c2cc(C)c(C(=O)NCC(=O)O)s2)cc1C [Ex. 53, 2-[(5-{1-Ethyl-1-[4-(2-ethyl-2-hydroxy-butoxy)-3-methyl-phenyl]-propyl}-3-methyl-thiophene-2-carbonyl)-amino]-acetic acid] — 5.4-fold higher, 267 nM
- CCC(C)[C@H](NC(=O)c1sc(C(CC)(CC)c2ccc(OCC(O)C(C)(C)C)c(C)c2)cc1C)C(=O)O (stereo partly drawn) [Ex. 69, L-2-[(5-{1-Ethyl-1-[4-(2-hydroxy-3,3-dimethyl-butoxy)-3-methyl-phenyl]-propyl}-3-methyl-thiophene-2-carbonyl)-amino]-3-methyl-pentanoic acid] — 9.8-fold higher, 487 nM
- Cc1cc(C2(c3ccc(OCC(=O)C(C)(C)C)c(C)c3)CCCCC2)ccc1OCC(=O)C(C)(C)C [CC, 1-(4-{1-[4-(3,3-Dimethyl-2-oxo-butoxy)-3-methyl-phenyl]-cyclohexyl}-2-methyl-phenoxy)-3,3-dimethyl-butan-2-one, reference compound] — higher, > 1000 nM

Reference: patent publication US7601850B2, “Phenyl-thiophene type vitamin D receptor modulators” (Eli Lilly and Company, priority 2002, dated 2009)
